In patent US5827073A, “Photoreactive peptide derivatives” (Ludwig Institute for Cancer Research, priority 1995, dated 1998):
Entries after “also recorded” stand apart in the source; their conditions may differ. Where no end group is shown, it is not given here. [ ]: non-standard residue; d: D form. IASA = not defined here; Dap = NC[C@H](N)C(=O)O

What was measured:
Format in all cases: binding, human
HLA-A1 [1] = assay: HLA-A1 photoaffinity labelling of HLA-A1 transfected C1R cells with radioiodinated peptide derivative; conditions: β2-microglobulin, 26° C., UV irradiation, SDS-PAGE
Method: (§1) All photoaffinity labelling procedures were performed essentially as described by Luescher et al., J. Immunol., 148:1003-011 (1992); Luescher et al., Nature, 351:72-74 (1991); Romero et al., J. Exp. Med., 177:1247-1256 (1993); Luescher et al., J. Biol. Chem., 269:5574-5592 (1994); and Romero et al., J. Immunol. Methods, 171:73-84 (1994). Briefly, HLA-A1 transfected C1R cells, cultured in hygromycin containing medium, or other cell types were resuspended in DMEM medium supplemented with 0.5% fetal calf serum, 10 mM HEPES and 0.25 μg/ml human β2-microglobulin, or as specified, at 6 ×10^6 cells/ml. One ml aliquotes were incubated in 6-well plates with 20 ×10^6 cpm of peptide derivative at 26° C. for 4 hours or as specified.
(§2) After UV irradiation with a 15 W mercury fluorescence lamp with an emission maximum at 365 nm and a band width of 80 nm for 4 minutes at a lamp-sample distance of 2 cm, the cells were washed 4 times with DMEM containing 2% calf serum and 1 time with PBS. The washed cells were lysed and boiled in reducing sample buffer supplemented with MgCl2 and subjected to SDS-PAGE. Alternatively the UV irradiated samples were lysed with NP-40 detergent (0.7%) on ice in the presence of HEPES (50 mM), leupeptin (10 μg/ml), PMSF (0.1 mM), and iodoacetamide (10 MM). Immunoprecipitation of HLA molecules with immobilized W6/32 mAb (Brodsky et al., J. Immunol., 128:129-135 (1982) and SDS-PAGE analysis of the immunoprecipitate were performed as described by Luescher et al., Electrophoresis, 8:508 (1987). The gels were evaluated by autoradiography and in some experiments by densitometry as described by Luescher et al., J. Immunol., 148:1003-1011 (1992). Each labelling experiment was performed at least twice.
To perform competition assays, ^51 Cr labelled C1R HLA-A1 transfected cells were incubated in the presence of a suboptimal concentration of the MAGE-3 peptide 168-176 with cloned HLA-A1-restricted MAGE-3-specific CTL 20/38. […] Alternatively, the radioiodinated peptide derivatives were incubated with HLA-A1 transfected C1R cells and following UV irradiation, the lysates of the washed cells were analyzed by SDS-PAGE (10%, reducing conditions).
Following incubation of these cells with the radioiodinated peptide derivatives and UV irradiation, cell lysates were analyzed by SDS-PAGE (FIG. 4B).

HLA class I molecules [2] = assay: Photoaffinity labelling of a panel of cell lines expressing different HLA class I molecules; conditions: for photoaffinity labelling of 45 kDa HLA heavy chain on LG2-EBV cells: lane 11
Method: as §1, §2
The first 9 were HLA homozygous EBV transformed cells lines that have been described at the 10th International Histocompatibility Workshop (DuPont, Immunobiology of HLA, New York, Springer-Verlag, Vol. 1 (1987)). Workshop numbers are indicated as "ws#", and their HLA-C expression has been determined by PCR (Levine et al., Tissue Antigens, 44:174 (1994)). The heterozygous EBV transformed cell lines were derived from HLA-typed individuals. In the case of HLA-C, the serological typing was incomplete, as indicated by question marks. The remaining cell line was COS-7 cell transfected with HLA-Cw*1601. These cells were subjected to the same labelling procedure as described for FIG. 4B.

HLA class I molecules [3] = assay: as above; conditions: COS-7 transfectant
HLA-A1 [4] = assay: Dissociation of HLA-A1 peptide derivative complexes on C1R/A1 cells; conditions: physiological conditions (37° C., no exogenous β2-microglobulin), after 6 hours
Method: FIG. 3 is comprised of FIG. 3A, FIG. 3B and FIG. 3C. FIG. 3A represents SDS-PAGE analysis of EADPTGDap(IASA)SY incubated with C1R/A1 cells or WT51 cells in the presence of β2-microglobulin. FIG. 3B represents SDS-PAGE where incubation was performed at 37° C. or 26° C. in the absence of presence of β2-microglobulin, and the autoradiograms were evaluated by densitometry.
This considerable increase is mainly accounted for by an accordingly less efficient peptide binding under physiological conditions (i.e., 37° C. and no exogenous β2-microglobulin) . Another difference between the human and murine system is the difference in the stability of MHC class 1-peptide complexes. On C1R/A1 cells, the dissociation of HLA-A1 peptide derivative complexes under physiological conditions was remarkably slow, and even after 6 hours of incubation less than 20% dissociation took place (FIG. 3C). Similarly slow dissociations have been reported for other HLA class I molecules (DiBrino et al., J. Immunol., 152:620-631 (1994); Tsomides et al., Proc. Natl. Acad. Sci. USA, 88:11276 (1991)). In contrast, in the murine system, i.e., the Kd, Db of Ld system, under these conditions rapid dissociations with halftimes in the range of one hour have been reported (Luescher et al., Nature, 351:72-74 (1991); Luescher et al., J. Biol. Chem., 269:5574-5582 (1994); Romero et al., 1994, supra).

HLA-A29 = assay: Inhibition of HLA-A29 photoaffinity labelling on 807-02 cells by competitor peptides; conditions: for inhibition of HLA-A29 photoaffinity labelling (HLA-A29 competitor activity / binding): 20-fold molar excess of competitor, FIG. 6B
Method: as §1, §2
After UV irradiation, the cells were lysed and the immunoprecipitated HLA molecules were analyzed by SDS-PAGE and the resulting autoradiograms were evaluated by densitometry. All experiments were performed at least in triplicate. Hundred percent labelling refers to the labelling observed in the absence of a competitor peptide (FIG. 6A).

HLA-A1 [5] = assay: Inhibition of HLA-A1 photoaffinity labelling on C1R/A1 cells by competitor peptides; conditions: for binding of MAGE-3 peptide variants to HLA-A1: single alanine substitutions, method not stated
[6] = labelling with Dap(IASA)-ADPTGHSY on C1R HLA-A1 transfectants, 100-fold molar excess of competitor, densitometry

Dap(IASA)-ADPTGHSY ([Dap](IASA)ADPTGHSY; reading uncertain)
HLA-A1 photoaffinity labelling (45 kDa HLA-A1 heavy chain) (HLA-A1 [1]): efficiently bound to and photoaffinity labelled HLA-A1
HLA-A1 photoaffinity labelling (45 kDa HLA-A1 heavy chain) (HLA-A1 [1]; listed as derivative containing Dap(IASA) in position 1): efficiently labelled
HLA labelling on 806-04 cells (HLA class I molecules [2]; 806-04 (HLA-A29+)): similarly efficient HLA labelling
photoaffinity labelling of 45 kDa HLA heavy chain on 807-02 cells (HLA class I molecules [2]; 807-02 (HLA-A29+), lane 15): significant photoaffinity labelling; also recorded: similarly efficient HLA labelling
photoaffinity labelling of 45 kDa HLA heavy chain on BM21 cells (HLA class I molecules [2]; EBV transformed line BM21 (HLA-A1), lane 1): significant photoaffinity labelling
photoaffinity labelling of 45 kDa HLA heavy chain on MOU cells (HLA class I molecules [2]; EBV transformed line MOU (HLA-A*2902, HLA-B*4403), lane 4): significant photoaffinity labelling
photoaffinity labelling of 45 kDa HLA heavy chain on LG2-EBV cells (HLA class I molecules [2]): significant photoaffinity labelling
photoaffinity labelling of 45 kDa HLA heavy chain on LG2-EBV cells (HLA class I molecules [2]; listed as SEQ ID NO: 8): weak labelling
photoaffinity labelling of 45 kDa material on the other lines tested (HLA class I molecules [2]; lanes 2, 3, 5-10, 12-14): not detectable
HLA labelling on COS-7 cells transfected with HLA-A1 (HLA class I molecules [3]): displayed HLA labelling
HLA labelling on COS-7 cells transfected with HLA-A29 (HLA class I molecules [3]): displayed HLA labelling

Glu Ala Asp Pro Thr Gly Dap(IASA) Ser Tyr (EADPTG[Dap](IASA)SY; reading uncertain; also: radioiodinated, printed as Glu Ala Asp Pro Thr Gly Dap(IASA) Ser Tyr) [SEQ ID NO: 1]
HLA-A1 photoaffinity labelling (45 kDa HLA-A1 heavy chain) (HLA-A1 [1]): corresponds to the HLA-A1 heavy chain
HLA-A1 photoaffinity labelling (45 kDa HLA-A1 heavy chain) (HLA-A1 [1]; listed as derivative containing Dap(IASA) in position 7): efficiently labelled
HLA labelling on eight other EBV cell lines (HLA class I molecules [2]; eight other EBV cell lines expressing different HLA-A, B and C molecules): Equally negative
HLA labelling on TEM cells (HLA class I molecules [2]; homozygous EBV transformed line TEM, HLA-A26, B-38): No detectable HLA labelling
HLA labelling on WT51 cells (HLA class I molecules [2]; homozygous EBV transformed line WT51, HLA-A23, B65): No detectable HLA labelling
dissociation of HLA-A1 peptide derivative complexes (HLA-A1 [4]): less than 20%

MAGE-3 variant Tyr-176 replaced with phenylalanine: MAGE-3 peptide 168-176 with C-terminal tyrosine replaced by phenylalanine (EVDPIGHLF; UniProt P43357 168-176, looked up, variant Y176F)
inhibition of HLA-A29 photoaffinity labelling (HLA-A29 competitor activity / binding) (HLA-A29): largely preserved the HLA-A29 competitor activity; also recorded: considerably diminishes binding

MAGE-3 variant alanine substitution of Asp-170: MAGE-3 peptide 168-176 with Asp-170 replaced by alanine (EVAPIGHLY; UniProt P43357 168-176, looked up, variant D170A)
binding of MAGE-3 peptide variants to HLA-A1 (HLA-A1 [5]): substantially impaired its binding

MAGE-3 variant alanine substitution of Ile-172: MAGE-3 peptide 168-176 with Ile-172 replaced by alanine (EVDPAGHLY; UniProt P43357 168-176, looked up, variant I172A)
inhibition of HLA-A29 photoaffinity labelling (HLA-A29 competitor activity / binding) (HLA-A29): markedly reduced the binding

MAGE-3 variant alanine substitution of Val-169: MAGE-3 peptide 168-176 with Val-169 (position 2) replaced by alanine (EADPIGHLY; UniProt P43357 168-176, looked up, variant V169A)
inhibition of HLA-A29 photoaffinity labelling (HLA-A29 competitor activity / binding) (HLA-A29): to a lesser degree
inhibition of HLA-A29 photoaffinity labelling (HLA-A29 competitor activity / binding) (HLA-A29; listed as MAGE-3 variant substitution in position 2 with alanine): impaired

MAGE-3 variant containing Ala in position 9: MAGE-3 peptide 168-176 with Tyr-176 replaced by alanine (EVDPIGHLA; UniProt P43357 168-176, looked up, variant Y176A)
binding of MAGE-3 peptide variants to HLA-A1 (HLA-A1 [5]): substantially impaired its binding
inhibition of HLA-A29 photoaffinity labelling (HLA-A29 competitor activity / binding) (HLA-A29): 13%

MAGE-3 variant substitution in position 2 with isoleucine: MAGE-3 peptide 168-176 with position 2 replaced by isoleucine (EIDPIGHLY; UniProt P43357 168-176, looked up, variant V169I)
inhibition of HLA-A29 photoaffinity labelling (HLA-A29 competitor activity / binding) (HLA-A29): increased

MAGE-3 variant substitution in position 2 with phenylalanine: MAGE-3 peptide 168-176 with position 2 replaced by phenylalanine (EFDPIGHLY; UniProt P43357 168-176, looked up, variant V169F)
inhibition of HLA-A29 photoaffinity labelling (HLA-A29 competitor activity / binding) (HLA-A29): increased

MAGE-3: HLA-A1 restricted MAGE-3 peptide 168-176
inhibition of HLA-A1 photoaffinity labelling (HLA-A1 [5]; [6]): about 98%
inhibition of HLA-A1 photoaffinity labelling (HLA-A1 [5]; labelling with SEQ ID NO: 1 on C1R/A1 cells, 300 fold molar excess of competitor): completely inhibited
inhibition of HLA-A29 photoaffinity labelling (HLA-A29 competitor activity / binding) (HLA-A29): approximately 80%

tyrosinase peptide 368-376: HLA-A2-restricted tyrosinase peptide 368-376 (IYMNGTMSQ; UniProt P14679 368-376, looked up, fragment) [reference compound]
inhibition of HLA-A1 photoaffinity labelling (HLA-A1 [5]; [6]): No significant inhibition
inhibition of HLA-A29 photoaffinity labelling (HLA-A29; labelling with Dap(IASA)-ADPTGHSY on 807-02 cells, 100-fold molar excess of competitor, densitometry): no detectable inhibition
